Measured values from patent publication US11713307B2, “Heteroaryl-biphenyl amides for the treatment of PD-L1 diseases” (CHEMOCENTRYX, INC., priority 2019, dated 2023).
pIC50: −log10 of the molar value.

Target: human PD-L1 (Homo sapiens (Human), UniProt Q9NZQ7)
Test: Enzyme-Linked Immunosorbent Assay—ELISA (PD-1/PD-L1 binding)
Details: plates coated with human PD-L1; Human PD-1 and biotin added; absorbance at 450 nm
Experimental: 96 Well plates were coated with 1 μg/mL of human PD-L1 (obtained from R&D) in PBS overnight at 4° C. The wells were then blocked with 2% BSA in PBS (W/V) with 0.05% TWEEN-20 for 1 hour at 37° C. The plates were washed 3 times with PBS/0.05% TWEEN-20 and the compounds were serial diluted (1:5) in dilution medium and added to the ELISA plates. Human PD-1 and biotin 0.3 μg/mL (ACRO Biosystems) were added and incubated for 1 hour at 37° C. then washed 3 times with PBS/0.05% TWEEN-20. A second block was performed with 2% BSA in PBS (W/V)/0.05% TWEEN-20 for 10 min at 37° C. and the plates were washed 3 times with PBS/0.05% TWEEN-20. Streptavidin-HRP was added for 1 hour at 37° C. then the plates were washed 3 times with PBS/0.05% TWEEN-20. TMB substrate was added and reacted for 20 min at 37° C. A stop solution (2 N aqueous H2SO4) was added. The absorbance was read at 450 nm using a micro-plate spectrophotometer. The results are shown in Table 1: IC50 values are provided as follows: from 1000 to 10,000 nM (+); from 10 up to 1000 nM (++); less than 10 nM (+++).

Sequence of human PD-L1 (Q9NZQ7 19-239): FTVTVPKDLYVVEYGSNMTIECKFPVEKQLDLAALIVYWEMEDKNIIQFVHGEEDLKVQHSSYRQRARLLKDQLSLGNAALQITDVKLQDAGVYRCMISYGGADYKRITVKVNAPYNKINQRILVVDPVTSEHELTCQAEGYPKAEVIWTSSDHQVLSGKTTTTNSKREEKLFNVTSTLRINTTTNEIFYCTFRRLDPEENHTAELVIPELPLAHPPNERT

Row | SMILES | pIC50
1 | COc1nc(-c2cccc(-c3cccc(NC(=O)c4cn(C)c(=O)n(C)c4=O)c3Cl)c2Cl)cnc1CN[C@@H]1CCC(=O)NC1 [Compound 1.001] | > 8.00
2 | COc1nc(-c2cccc(-c3cccc(NC(=O)c4cn(C)c(=O)n(C)c4=O)c3Cl)c2Cl)cnc1CN[C@@H]1CNC(=O)C1 [Compound 1.002] | > 8.00
3 | COc1nc(-c2cccc(-c3cccc(NC(=O)c4cn(C)c(=O)n(C)c4=O)c3Cl)c2Cl)cnc1CNC[C@@H]1CCC(=O)N1 [Compound 1.003] | > 8.00
4 | COc1nc(-c2cccc(-c3cccc(NC(=O)c4cn(C)c(=O)n(C)c4=O)c3Cl)c2Cl)cnc1CN[C@H]1CCOC[C@H]1O [Compound 1.004] | > 8.00
5 | COc1nc(-c2cccc(-c3cccc(NC(=O)c4cn(C)c(=O)n(C)c4=O)c3Cl)c2Cl)cnc1CN[C@@H]1CCOC[C@@H]1O [Compound 1.005] | > 8.00
6 | COc1nc(-c2cccc(-c3cccc(NC(=O)c4cn(C)c(=O)n(C)c4=O)c3C)c2Cl)ccc1CNC[C@@H]1CCC(=O)N1 [Compound 1.006] | > 8.00
7 | COc1nc(-c2cccc(-c3cccc(NC(=O)c4cn(C)c(=O)n(C)c4=O)c3C)c2Cl)ccc1CN[C@@H]1CNC(=O)C1 [Compound 1.007] | > 8.00
8 | COc1nc(-c2cccc(-c3cccc(NC(=O)c4cn(C)c(=O)n(C)c4=O)c3C)c2Cl)ccc1CN[C@@H]1CCOC[C@@H]1O [Compound 1.008] | > 8.00
9 | COc1cc(-c2cccc(-c3cccc(NC(=O)c4cn(C)c(=O)n(C)c4=O)c3C)c2Cl)cnc1CN[C@@H]1CCOC[C@@H]1O [Compound 1.009] | > 8.00
10 | COc1cc(-c2cccc(-c3cccc(NC(=O)c4cn(C)c(=O)n(C)c4=O)c3C)c2C)cnc1CNCCO [Compound 1.010] | > 8.00
11 | COc1nc(-c2cccc(-c3cccc(NC(=O)c4cn(C)c(=O)n(C)c4=O)c3C)c2Cl)ccc1CN[C@@H]1CCC[C@@H]1O [Compound 1.011] | > 8.00
12 | COc1nc(-c2cccc(-c3cccc(NC(=O)c4cn(C)c(=O)n(C)c4=O)c3C)c2Cl)ccc1CN[C@@H]1COC[C@@H]1O [Compound 1.012] | > 8.00
13 | COc1nc(-c2cccc(-c3cccc(NC(=O)c4cn(C)c(=O)n(C)c4=O)c3C)c2Cl)ccc1CN[C@H]1CCOC[C@@H]1O [Compound 1.013] | > 8.00
14 | COc1nc(-c2cccc(-c3cccc(NC(=O)c4cn(C)c(=O)n(C)c4=O)c3C)c2Cl)ccc1CN[C@@H]1CCOC[C@H]1O [Compound 1.014] | > 8.00
15 | COc1nc(-c2cccc(-c3cccc(NC(=O)c4cn(C)c(=O)n(C)c4=O)c3C)c2Cl)ccc1CNCC1(C)CCC(=O)N1 (stereo not drawn) [Compound 1.015] | > 8.00
16 | COc1nc(-c2cccc(-c3cccc(NC(=O)c4cn(C)c(=O)n(C)c4=O)c3C)c2Cl)ccc1CNC[C@@H]1CC(C)(C)C(=O)N1 [Compound 1.016] | > 8.00
17 | COc1nc(-c2cccc(-c3cccc(NC(=O)c4cn(C)c(=O)n(C)c4=O)c3C)c2Cl)ccc1CN[C@@H]1CCCC[C@@H]1O [Compound 1.017] | > 8.00
18 | COc1nc(-c2cccc(-c3cccc(NC(=O)c4cn(C)c(=O)n(C)c4=O)c3Cl)c2F)ccc1CN[C@@H]1CCOC[C@@H]1O [Compound 1.018] | > 8.00
19 | COc1nc(-c2cccc(-c3cccc(NC(=O)c4cn(C)c(=O)n(C)c4=O)c3C)c2Cl)ccc1CN1CC[C@](C)(O)C1 [Compound 1.019] | > 8.00
20 | COc1nc(-c2cccc(-c3cccc(NC(=O)c4cn(C)c(=O)n(C)c4=O)c3C)c2Cl)ccc1CN[C@H](C)CO [Compound 1.020] | > 8.00
21 | COc1nc(-c2cccc(-c3cccc(NC(=O)c4cn(C)c(=O)n(C)c4=O)c3C)c2Cl)ccc1CN[C@@H](C)CO [Compound 1.021] | > 8.00
22 | COc1nc(-c2cccc(-c3cccc(NC(=O)c4cn(C)c(=O)n(C)c4=O)c3C)c2Cl)ccc1CNCC1(O)CC1 [Compound 1.022] | 5.00 to 6.00
23 | COc1nc(-c2cccc(-c3cccc(NC(=O)c4cn(C)c(=O)n(C)c4=O)c3C)c2Cl)ccc1CNCCC(C)(C)O [Compound 1.023] | > 8.00
24 | COc1nc(-c2cccc(-c3cccc(NC(=O)c4cn(C)c(=O)n(C)c4=O)c3C)c2F)ccc1CN[C@@H]1CCOC[C@@H]1O [Compound 1.024] | > 8.00
